Usually inhibition stands for the share of the control response that was lost under treatment. The term EC50 denotes the concentration needed to bring the measured effect to its halfway point. Read a low EC50 as higher potency in that assay. As usually defined, the Papp is a coefficient for how fast a substance crosses the barrier.

One data set concerns HEL 299. The note with it: human, hel 299, 168 h.
Data set [1] deals with Human betaherpesvirus 5. It is filed as functional. The note with it: Human betaherpesvirus 5, HEL 299, time 168 hrs.
In data set [2] the target is T1, Tripartite terminase subunit 3 (Human betaherpesvirus 5) (UniProt P16732).
T1 sequence (whole entry): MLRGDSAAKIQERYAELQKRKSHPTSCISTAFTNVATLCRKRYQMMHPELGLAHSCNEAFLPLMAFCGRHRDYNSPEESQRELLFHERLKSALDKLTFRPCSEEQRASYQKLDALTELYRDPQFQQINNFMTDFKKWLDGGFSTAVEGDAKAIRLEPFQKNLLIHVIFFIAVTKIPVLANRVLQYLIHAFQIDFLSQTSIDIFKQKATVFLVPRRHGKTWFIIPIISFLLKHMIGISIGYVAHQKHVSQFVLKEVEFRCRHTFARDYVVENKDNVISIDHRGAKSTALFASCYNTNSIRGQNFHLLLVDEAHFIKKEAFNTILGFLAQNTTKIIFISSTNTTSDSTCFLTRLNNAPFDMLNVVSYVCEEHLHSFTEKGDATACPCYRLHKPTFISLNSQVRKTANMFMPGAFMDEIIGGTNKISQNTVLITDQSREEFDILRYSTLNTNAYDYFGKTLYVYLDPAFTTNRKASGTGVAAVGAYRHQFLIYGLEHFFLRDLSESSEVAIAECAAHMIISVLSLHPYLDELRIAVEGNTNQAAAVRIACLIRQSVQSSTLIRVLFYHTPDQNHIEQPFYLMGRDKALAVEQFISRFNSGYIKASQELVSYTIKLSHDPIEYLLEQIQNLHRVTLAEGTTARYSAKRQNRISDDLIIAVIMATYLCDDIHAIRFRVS
As to the kind of experiment: Inhibition of human cytomegalovirus pUL89 endonuclease activity using 60 bp dsDNA substrate at 20 uM incubated for 30 mins by ELISA-based biochemical assay relative to control.

The subject of data set [3] is Human betaherpesvirus 5. It is filed as functional, cell-based. The note with it: Human betaherpesvirus 5, HEL 299, 168 h.
Data set [4] in a line: Cytotoxicity against human HEL 299 cells assessed as cell viability at 10 uM incubated for 168 hrs by MTS-based tetrazolium reduction assay relative to control. The note with it: HEL 299 cells, read-out: Activity. For orientation: Formazan colour is commonly taken as a measure of viable cells.
Data set [5] is described as follows: Apparent permeability of the compound incubated for 5 hrs by LC-MS/MS analysis based PAMPA method. The format is ADME. The conditions noted are these: PAMPA. A general note: In PAMPA a lipid-coated filter parts donor from acceptor wells.

In the data set on HEL 299, `Cn1c(Sc2cccc(Cl)c2)cc(=O)n(O)c1=O` returned a CC50 of 23.1 µM. The same compound had an inhibition at 10 µM in the data set with Human betaherpesvirus 5 [1] of 74%. Moreover, the inhibition in data set [2] was 37%. For the same compound, the 50% effective concentration (EC50) in the data set with Human betaherpesvirus 5 [3] stood at 4.7 µM. In addition, in data set [4], the viability at 168 h, 10 µM came to 117%.
Turning to `COc1ccc(-c2ccc(Sc3cc(=O)n(O)c(=O)[nH]3)cc2)cc1`, the apparent permeability coefficient (Papp) at 5 h in data set [5] came to 1.1 ×10⁻⁶ cm/s. Further, the CC50 in the data set on HEL 299 was 20.3 µM. This compound gave an inhibition at 10 µM in the data set on Human betaherpesvirus 5 [1] of 80%. In data set [2], this compound came in with an inhibition of 22%. A half-maximal response with Human betaherpesvirus 5 [3] (EC50) required 7.2 µM. The viability at 168 h, 10 µM in data set [4] was 94%.

The values above are taken from ChEMBL document CHEMBL4823278, “Metal binding 6-arylthio-3-hydroxypyrimidine-2,4-diones inhibited human cytomegalovirus by targeting the pUL89 endonuclease of the terminase complex” (Eur J Med Chem, 2021).
